Consider three compounds from PubChem BioAssay AID1437 (PCMD, 2008).

The source made the active and inactive calls. How the calls were made is not given here.

Broadly, the IC50 is the concentration at which inhibition is half-maximal.

For this test, the target named is DNA repair protein RAD51 homolog 1 (Homo sapiens) (UniProt Q06609). As to the kind of experiment: RAD51 recombination inhibitor potency, dose response, biochemical, homologous recombination, fluorescence, second set (AID 1437). The note with it: RAD51 homologous recombination biochemical assay.
Sequence of DNA repair protein RAD51 homolog 1 (Homo sapiens) (Q06609 whole entry, looked up): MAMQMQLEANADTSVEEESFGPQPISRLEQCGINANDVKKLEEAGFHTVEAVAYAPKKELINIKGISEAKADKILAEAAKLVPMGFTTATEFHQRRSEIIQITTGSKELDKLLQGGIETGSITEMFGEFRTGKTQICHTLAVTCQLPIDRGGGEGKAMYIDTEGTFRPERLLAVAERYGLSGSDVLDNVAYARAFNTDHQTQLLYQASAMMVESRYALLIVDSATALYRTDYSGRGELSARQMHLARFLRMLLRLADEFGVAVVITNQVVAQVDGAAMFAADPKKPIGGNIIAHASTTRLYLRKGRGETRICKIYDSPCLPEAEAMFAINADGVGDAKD
Take `COC(=O)c1ccc(=O)c2nc3/c(=C/O)c(O)cc(=O)c3[nH]c12`: the IC50 was 24.8 µM. To `Cc1ccc(C2/C(=C(\O)c3ccc4c(c3)OCCO4)C(=O)C(=O)N2CCCN(C)C)o1` (stereo not drawn) belongs > 53 µM (inactive). Regarding `Cc1cc(C)cc(N2C(=O)CC(Sc3nnnn3-c3ccccc3)C2=O)c1` (stereo not drawn), the IC50 was > 53 µM (inactive).
